The values that follow come from patent US20210267978A1, “NANOPARTICLE FORMULATIONS OF IKE AND METHODS OF USE THEREOF” (The Trustees of Columbia University in the City of New York, priority 2018, published 2021).

Where two headings read alike, the source gives them in different places.

Data set [1] has as its system SUDHL6 xenograft tumor tissue. The experiment in a line: qPCR in mouse tumor tissue after one IKE dose. It is filed as in vivo, NCG mice. The following applies: single dose IKE 50 mg/kg, starting at 3 h. As to the method: NCG mice 6-weeks of age were injected with 10 million SUDHL-6 cells subcutaneously. Visible tumors appeared after 2 weeks. Tumor size was measured by electronic caliper every 2 days and calculated using the formula: 0.5×length×width^2. After another 2 weeks, mice were randomly separated into group of 3 mice per cage with roughly tumor size (1200 mm^3). Mice were dosed at 50 mg/kg IKE, 22 mg/kg IKE, 22 mg/kg IKE PEG-PLGA nanoparticles (equal to 600 mg/kg PEG-PLGA) using IP at one time and samples were collected at 0, 1, 2, 3, 4, 6, and 24 h with three mice per time point. Mice were dosed with Vehicle 1 and Vehicle 2 (600 mg/kg PEG-PLGA) by IP and samples were collected at 24 h. […] Plasma samples were collected and analyzed as described above. […] After drying, the samples were resuspended in 100 μL of methanol and analyzed on the LC-MS with each sample analyzed twice. […] The concentration of IKE in the sample was determined by comparison against a standard curve of IKE in the range of 25 to 2,500 ng/mL. […] Pharmacokinetics parameters of IKE were assessed using Prism fitted with Lognormal of one phase exponential decay. […]
To perform qPCR analysis in mouse tumor tissue, ˜20 mg of tumor tissue was prepared and kept on dry ice. […] RNA was reverse transcribed to cDNA then used in quantitative PCR experiment following the same steps used in cell qPCR experiment.
In general terms: Quantitative PCR measures a nucleic acid by following its amplification.

A further data set has as its system some cell lines. As to conditions: cited from earlier work.
The nature of data set [2]: Pharmacokinetic analysis in NCG mice bearing SUDHL6 xenografts (plasma and tumor, LC-MS). It is filed as in vivo. The following applies: SUDHL6-xenograft NCG mice; for AUC(0-t) / Cmax / Tmax / half-life / concentration at 24 h: mouse; for AUC(0-t) / Cmax / Tmax / half-life / concentration at 24 h / Tlast: single dose 50 mg/kg IP; for concentration at 24 h: read-out: Clast. How it is done:
IKE was dissolved in 5% DMSO/95% HBSS at pH 4 to create a 5 mg/mL solution or 3 mg/mL solution. 5% DMSO/95% HBSS at pH 4 was used as vehicle 1. IKE PEG-PLGA nanoparticles and unfunctionalized PEG-PLGA nanoparticles (without IKE) (vehicle 2) prepared with a NanoAssemblr were dialyzed with deionized water overnight, and the water was changed at least twice. Dialyzed IKE-PEG-PLGA nanoparticles and unfunctionalized PEG-PLGA nanoparticles were concentrated by Amicon Ultra-15 Centrifugal Filter Units to create a solution with 80 mg/mL PEG-PLGA nanoparticles. All above solutions were sterilized by filtering through a 0.2 μm syringe filter.
NCG mice 6-weeks of age were injected with 10 million SUDHL-6 cells subcutaneously. Visible tumors appeared after 2 weeks. Tumor size was measured by electronic caliper every 2 days and calculated using the formula: 0.5×length×width^2. After another 2 weeks, mice were randomly separated into group of 3 mice per cage with roughly tumor size (1200 mm^3). Mice were dosed at 50 mg/kg IKE, 22 mg/kg IKE, 22 mg/kg IKE PEG-PLGA nanoparticles (equal to 600 mg/kg PEG-PLGA) using IP at one time and samples were collected at 0, 1, 2, 3, 4, 6, and 24 h with three mice per time point. Mice were dosed with Vehicle 1 and Vehicle 2 (600 mg/kg PEG-PLGA) by IP and samples were collected at 24 h. Mice were euthanized using a CO2 gas chamber before xenograft dissection and cardio puncture. Plasma samples were collected and analyzed as described above. Tumors were dissected and divided into 6 segments, frozen on dry ice, and stored at −80° C. Before IKE extraction, tumor tissue samples were thawed at room temperature and weighed. A 2.5-fold ratio of volume of phosphate-buffered saline (PBS) (mL/g) was added to the sample and homogenized using Bead Ruptor 4 at speed 4 for 30 sec. The homogenization step was repeated until the samples were homogenized well (final weight/volume was 0.4 g/mL). 100 μL of homogenized tissue (equal to 40 mg) was added to a new microfuge tube, 900 μL of acetonitrile was added. The samples were mixed for at least 5 minutes by rotating on a shaker and were sonicated for at least 30 sec prior to centrifugation for 10 min at 4,000×g and 4° C. The supernatant was removed and dried on the GeneVac overnight on the HPLC setting. After drying, the samples were resuspended in 100 μL of methanol and analyzed on the LC-MS with each sample analyzed twice. Technical replicates were averaged. The concentration of IKE in the sample was determined by comparison against a standard curve of IKE in the range of 25 to 2,500 ng/mL. Pharmacodynamic analysis of ferroptosis biomarkers is described in the RT-qPCR, glutathione, immunofluorescence, and lipidomics sections below. Pharmacokinetics parameters of IKE were assessed using Prism fitted with Lognormal of one phase exponential decay.

As a reminder, the AUC(0-t) is exposure summed from dosing to a finite time, without extrapolation to infinity. Low values mean low exposure, high ones high exposure. Broadly, the Cmax is the peak of the concentration-time curve. As usually defined, the Tmax is the time at which the peak concentration occurs. Broadly, the half-life is the time in which the quantity being followed falls by half. A higher half-life goes with slow loss. As to `CC(C)Oc1ccc(C(=O)Cn2ccnc2)cc1-n1c(CN2CCN(C(=O)COc3ccc(Cl)cc3)CC2)nc2ccccc2c1=O` [IKE, Imidazole ketone erastin], the “CHAC1 mRNA upregulation in tumor” value in data set [1] is reported as 2 fold. For the same compound, the “potency improvement compared with erastin” value with some cell lines is listed as above 100 ×. In data set [2] (single dose 50 mg/kg i.p.), the highest plasma concentration is 5.2 µg/mL and the highest tumor accumulation was 2.5 µg/mL. In addition, in data set [2] (plasma), the AUC(0-t) worked out at 10900 ng·h/mL, the Cmax turned out to be 5180 ng/mL, the Tmax came to 1.35 h and the half-life is 1.83 h. Further, in data set [2] (plasma), the concentration at 24 h was found to be 30 ng/mL and the Tlast came to 24 h. Besides, in data set [2] (tumor tissue), the AUC(0-t) was 9860 ng·h/mL, the peak level (Cmax) was 2520 ng/mL, the time of peak concentration (Tmax) came to 3.3 h and the half-life is 3.5 h. Further, in data set [2] (tumor tissue), the concentration at 24 h turned out to be 283 ng/mL and the Tlast stood at 24 h.
